What was measured:
GLK (MAP4K3) = molecular target: T1, GLK (MAP4K3) (Homo sapiens, UniProt Q8IVH8); assay: In vitro kinase assay, myelin basic protein as substrate (ADP-Glo); format: biochemical; conditions: recombinant kinase domain
T1 construct: Recombinant proteins of kinase domains of various MAP4Ks were used; purchased Promega
T1 sequence (Q8IVH8 16-273 limits assumed): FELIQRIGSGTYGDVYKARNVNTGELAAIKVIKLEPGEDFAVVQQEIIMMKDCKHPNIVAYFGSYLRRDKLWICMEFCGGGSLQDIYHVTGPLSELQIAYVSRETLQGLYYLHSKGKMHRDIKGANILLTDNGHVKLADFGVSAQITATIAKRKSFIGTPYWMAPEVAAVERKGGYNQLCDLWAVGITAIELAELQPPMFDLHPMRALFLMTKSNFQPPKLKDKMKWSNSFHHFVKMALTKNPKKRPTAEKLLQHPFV
Method: GLK kinase activity was determined by measuring the rate of ADP production in the in vitro kinase reaction using ADP-Glo Kinase Assay Kit (Promega). For the kinase reaction, recombinant proteins of the GLK kinase domain (1 μg) were incubated with recombinant proteins of kinase-dead PKC-θ (K409W; 0.15 μg) plus ATP (0.1 mM) or myelin basic protein (MilliporeSigma) plus ATP (0.1 mM) in kinase buffer [40 mM Tris-HCl (pH 7.5), 20 mM MgCl2, 0.1 mg/ml bovine serum albumin, 10 mM DTT, and 0.1 mM Na3VO4] for 30 min at room temperature.

[1] = test system: human peripheral blood T cells; assay: ELISA of cytokines in supernatants of anti-CD3/CD28-stimulated human peripheral blood T cells; format: cell-based; conditions: for inhibition of IL-17A: 1 μM
Source text: Primary human T cells were freshly isolated and negatively selected from the PBLs of clinical samples using a cocktail of biotin-conjugated anti-CD19, anti-CD14, and anti-CD11b antibodies (BioLegend) on a magnetic cell separation column (Miltenyi Biotec, Bergisch Gladbach, Germany) ([26]). In addition, primary murine T cells were negatively selected from the spleens of mice using magnetically coupled antibodies against CD11b, B220, CD49b, CD235, and TER-119 (Miltenyi Biotec) ([18]).
We further studied whether IL-17A production is abolished by verteporfin in human and murine T cells. We first tested the inhibitory effect of verteporfin in murine T cells stimulated with T-cell receptor (TCR) signaling (anti-CD3 plus anti-CD28 antibodies). […] This reduction is likely due to the inhibition of NF-κB activation ([18]) by the verteporfin treatment. This notion is supported by our published results that TCR-induced TNF-α and IFN-γ levels in T cells are inhibited by IKK-β conditional knockout ([18]). Next, we studied whether verteporfin attenuates IL-17A production using human peripheral blood T cells with stimulation. The levels of T-cell–secreted IL-17A in unstimulated T cells from patients with SLE and RA were enhanced compared with those from healthy controls (Fig. 5B). […] GLK overexpression in T cells selectively induces IL-17A production in Lck-GLK Tg mice ([18]). […] The inhibition of the production of other cytokines by the high-dose but not low-dose verteporfin treatment may be due to a requirement of higher concentration of verteporfin for an efficient inhibition of NF-κB activation.
Figure 5 Verteporfin (C1) blocks IL-17 production of human T cells. A) ELISA of various cytokines in supernatants of murine primary T cells stimulated with anti-CD3 or CD28 and cotreated with C1 (5 or 10 μM) for 3 d. Means ± SD are shown; n = 3/group. B) ELISA of various cytokines in supernatants of human T cells. T cells were stimulated with anti-CD3 or CD28 and cotreated with C1 (1 or 5 μM) for 3 d. HC, healthy control; N.S., not significant. Means ± SD are shown. *P < 0.05, **P < 0.01, ***P < 0.001 (2-tailed Student’s t test).
Supplementary Figure 6. Inhibition of IL-17A overproduction by verteporfin in inflammatory T cells from SLE or RA patients. (A) ELISA of various cytokines in supernatants of T cells from RA patients. T cells were stimulated with anti-CD3/CD28 and co-treated with verteporfin (C1) (1 or 5 μM) for 3 days. Means ± SD are shown. (B) The inhibition (%) of IL-17A by the 1 μM verteporfin (C1) treatment in SLE or RA patients was compared to that of healthy controls (HC). Means ± SEM of are shown. HC, healthy controls; SLE, systemic lupus erythematosus; RA, rheumatoid arthritis.

[2] = test system: in vitro differentiated Th17 cells; assay: IL-17A production of in vitro differentiated Th17 cells stimulated with PMA plus ionomycin (flow cytometry); format: cell-based, murine; conditions: 1 or 5 μM for 30 min
Method: Supplementary Figure 5. Verteporfin inhibits both Th17 differentiation and IL-17A production from in vitro differentiated Th17 cells. (A) Flow cytometry of IL-17A-producing CD4^+ T cells. Splenic T cells were co-treated with verteporfin (C1) (1 or 5 μM) during Th17 differentiation in vitro (for 3 days). (B) Flow cytometry of IL-17A-producing CD4^+ T cells. Murine in vitro differentiated Th17 cells were stimulated with PMA plus ionomycin and co-treated with verteporfin (C1) (1 or 5 μM) for 30 min. Data shown are representatives of two independent experiments.

## verteporfin
GLK (MAP4K3)
  IC50: 1.15 nM
[1]; T cells of healthy controls
  inhibition of IL-17A: ~48%
[1]; T cells of patients with SLE or RA
  inhibition of IL-17A: ~75%
[1]; T cells from patients with SLE and RA and healthy controls, 1 or 5 μM for 3 d
  IL-17A production: significantly reduced
[1]; high-dose 5 μM, T cells of healthy controls and patients with SLE
  production of IL-17A, IL-6, IL-10, TNF-α, and IFN-γ: significantly inhibited
[1]; low-dose 1 μM, T cells from patients with SLE or RA
  production of IL-6, IL-10, TNF-α, and IFN-γ: modestly inhibited
[2]
  IL-17A production from in vitro differentiated Th17 cells: inhibited
[2]; listed as Verteporfin
  IL-17A production from in vitro differentiated Th17 cells: inhibits

From article PMC6766655, “AhR–ROR-γt complex is a therapeutic target for MAP4K3/GLK^highIL-17A^high subpopulation of systemic lupus erythematosus” (The FASEB Journal, 2019)
